The target in series [1] is T1, Human erythrocyte acetylcholinesterase (Homo sapiens, UniProt P22303).
T1 construct: Human erythrocyte acetylcholinesterase (type XIII, Sigma Israel); purchased Sigma Israel type XIII; host or cells: human erythrocytes
Nature of the series: In vitro measurement of acetylcholinesterase (AChE) inhibition (Ellman method). The settings on record: at time of peak activity, incubation 15 to 60 minutes at 37°C. The class given is biochemical. As to the method: Human erythrocyte acetylcholinesterase (type XIII, Sigma Israel), was prepared in a stock solution of 1U/ml, containing Triton (1%) and bovine serum albumin (0.05%) in phosphate buffer (pH 8). The enzyme (0.05U) was incubated with 3-5 different concentrations of test compound (in triplicate) for periods of from 15 to 60 minutes at 37°C. […] The percentage inhibition of AChE by each concentration of drug is calculated by comparison with that of enzyme in the absence of drug.

In series [2] the target is T2, whole brain AChE (Mus musculus, UniProt P21836).
T2 construct: the brains rapidly removed (minus cerebellum), weighed and homogenized in 0.1M phosphate buffer pH 8.0; from tissue; host or cells: mouse brain (minus cerebellum) homogenate supernatant
T2 sequence (P21836 32-614): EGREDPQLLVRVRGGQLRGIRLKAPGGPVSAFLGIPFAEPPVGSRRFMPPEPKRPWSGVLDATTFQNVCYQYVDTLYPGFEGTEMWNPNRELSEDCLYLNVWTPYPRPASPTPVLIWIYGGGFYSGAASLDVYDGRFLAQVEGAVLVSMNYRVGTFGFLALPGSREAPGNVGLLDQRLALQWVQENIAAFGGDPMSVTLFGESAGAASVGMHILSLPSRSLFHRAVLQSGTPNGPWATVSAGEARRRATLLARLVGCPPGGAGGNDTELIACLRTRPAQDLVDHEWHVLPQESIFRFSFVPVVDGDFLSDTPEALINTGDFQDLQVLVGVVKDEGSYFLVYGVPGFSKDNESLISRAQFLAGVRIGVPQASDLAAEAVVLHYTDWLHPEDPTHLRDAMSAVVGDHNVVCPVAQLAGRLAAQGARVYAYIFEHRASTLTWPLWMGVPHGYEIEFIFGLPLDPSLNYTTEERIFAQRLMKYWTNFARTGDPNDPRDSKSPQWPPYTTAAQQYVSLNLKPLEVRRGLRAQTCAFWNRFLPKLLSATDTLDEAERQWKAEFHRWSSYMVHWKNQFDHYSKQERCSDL
Nature of the series: Ex vivo measurement of brain AChE inhibition after sub-cutaneous administration. The class given is in vivo, mice. Particulars: for ED50: sc, sub-cutaneous, mouse whole brain, at peak of activity, read-out: AChE Inhibition Ex vivo ED50 (AC). The protocol: Test drugs or saline were administered sub-cutaneously to male mice (Sabra strain, 28-35g). At least 4-5 mice were used per dose and a minimum of 3 doses per drug were tested. The mice were sacrificed 15, 30, 60, 70, 90, 120 or 180 minutes after drug administration, the brains rapidly removed (minus cerebellum), weighed and homogenized in 0.1M phosphate buffer pH 8.0, containing Triton (1mg/100g tissue) and centrifuged to remove cell debris. Aliquots (25 µl) of the supernatant were then incubated with acetylthiocholine and DTNB. AChE activity measured as described above. The % inhibition of whole brain AChE by each dose of drug was calculated by comparison with enzyme activity from 3 saline treated control mice run at the same time.

Series [3] in a line: Acute toxicity in mice (sub-cutaneous, lethality within 6 hours). The settings on record: mouse, in vivo, sc; for selectivity ratio: LD50 divided by ED50 (acetylcholine esterase ex vivo), read-out: Therapeutic Ratio (LD/AC); for LD50 at 6 h: sub-cutaneous, mice, within 6 hours. The protocol: Drugs were administered sub-cutaneously in at least 3 doses, to a minimum of 10 mice per dose. […] Therapeutic Ratio was calculated as LD50 divided by ED50(acetylcholine esterase ex vivo).

Series [4] concerns MAO-B. Nature of the series: Inhibition of MAO activity ex vivo (brain tissue), PEA substrate. The class given is in vivo, mice. Particulars: mouse brain tissue. The protocol:
(§1) Male Sabra mice, weighing 45-50g were injected with test compound solutions (prepared in 0.9% saline). Each dose was administered to two or three mice. The mice were sacrificed two hours after drug administration or at a time corresponding to the peak AChE inhibition time (see Table 6). The brain and liver were rapidly dissected and stored in appropriate vials on ice. The tissues were weighed, diluted to 1/20 in sucrose 0.3M and stored at -20°C before performance of the MAO assay described above. The results given in Table 6 relate to measurements made on brain tissue only.

Series [5] relates to MAO-A. Description: Inhibition of MAO activity ex vivo (brain tissue), 5-HT substrate. It is filed as in vivo, mice. Particulars: mouse brain tissue. As to the method: as §1
The test system of series [6] is mice. Nature of the series: Survival time of mice in hypobaric hypoxic episode. The class given is in vivo. The settings on record: 60 min before hypoxia. From the text:
The model is based on that described in Nakanishi, M. et al. Life Sci. (1973) 13: 467; Oshiro, et al., J. Med. Chem. (1991) 34: 2004-2013; and US Patent 4,788,130.
A 12 liter desiccator (desiccator A) and a 2.5 liter desiccator (desiccator B) were separately connected to a vacuum pump. Desiccator B was disconnected and allowed to equilibrate with room air whilst desiccator A was evacuated to a pressure of 100mmHg. Four male ICR albino mice (22-28g) were placed in desiccator B. Desiccator B was then closed to room air and connected to desiccator A. The pressure inside desiccator B was monitored using a mercury manometer and at the point the pressure in desiccator B reached 200mmHg (usually within 14 seconds), the two desiccators were disconnected from the vacuum pump and the pump switched off. The survival time from the moment of induction of hypoxia to the time of cessation of respiration was recorded. for each mouse for a maximum of 15 minutes after which time room air was reintroduced to desiccator B. Survivors were monitored for signs of lethargy or vitality.
Effect of drug treatment was assessed as the percent of the survival time of the drug treated group with respect to the saline injected or vehicle injected control group. Control groups were run twice, before and after each experimental group and consisted of 8 mice in groups of 4 mice to ensure a constant residual volume of oxygen in all tests. The effect of each dose of test drug was determined in duplicate i.e. two groups of 4 mice.
Positive reference drugs were sodium pentobarbital at a dose of 40 mg/kg, and diazepam 10 mg/kg given 0.5h prior to hypoxia, physostigmine 0.2 and 0.4 mg/kg and neostigmine 0.2 mg/kg given sc 30 min before hypoxia. Methyl atropine 1 mg/kg was given sc. 10 min. before physostigmine.
The volume of injection was 0.2-0.3 mL per mouse (10 mL/kg). The initial dose was about one third of the reported LD50 for acetylcholine esterase inhibition. If no protection could be obtained, the dose was further increased to the nearest non-toxic dose. In case of protection, the dose was further reduced in an attempt to locate the "protective" dose range.

The target in series [7] is T3, MAO-A (Rattus norvegicus, UniProt P21396).
T3 sequence (P21396 1-526): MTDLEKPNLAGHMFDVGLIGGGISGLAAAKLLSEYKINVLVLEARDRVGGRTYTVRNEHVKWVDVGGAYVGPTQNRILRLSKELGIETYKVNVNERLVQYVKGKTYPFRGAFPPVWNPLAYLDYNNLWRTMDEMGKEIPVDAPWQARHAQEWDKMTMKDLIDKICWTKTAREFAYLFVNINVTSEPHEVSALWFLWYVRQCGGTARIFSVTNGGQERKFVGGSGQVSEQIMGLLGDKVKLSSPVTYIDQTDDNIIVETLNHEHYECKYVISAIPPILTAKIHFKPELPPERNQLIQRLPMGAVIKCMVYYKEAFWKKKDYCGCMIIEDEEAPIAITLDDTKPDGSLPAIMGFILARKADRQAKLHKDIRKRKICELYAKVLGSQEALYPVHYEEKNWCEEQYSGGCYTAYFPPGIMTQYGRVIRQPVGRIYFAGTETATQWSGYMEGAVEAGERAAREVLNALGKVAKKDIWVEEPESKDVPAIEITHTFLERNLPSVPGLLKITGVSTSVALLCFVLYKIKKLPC
Nature of the series: Inhibition of MAO activity in vitro, rat brain homogenate, 5-HT substrate.
Description: (§2) The MAO enzyme source was a homogenate of rat brain in 0.3M sucrose, which was centrifuged at 600G for 15 minutes. The supernatant was diluted appropriately in 0.05M phosphate buffer, and pre-incubated with serial dilutions of test compounds for 20 minutes at 37°C. ^14C-Labeled substrates (2-phenylethylamine, hereinafter PEA; 5-hydroxytryptamine, hereinafter 5-HT) were then added, and the incubation continued for a further 20 minutes (PEA), or 30-45 minutes (5-HT). Substrate concentrations used were 50µM (PEA) and 1mM (5-HT). In the case of PEA, enzyme concentration was chosen so that not more than 10% of the substrate was metabolized during the course of the reaction. The deaminated products were extracted into toluene-ethyl acetate (1:1, v/v) containing 0.6% (w/v) 2,5-diphenyloxazole prior to determination by liquid scintillation counting. Radioactivity in the eluate indicates the production of neutral and acidic metabolites formed as a result of MAO activity. Activity of MAO in the sample was expressed as a percentage of control activity in the absence of inhibitors after subtraction of appropriate blank values The activity determined using PEA as substrate is referred to as MAO-B, and that determined using 5-HT as MAO-A.

Series [8] addresses T4, MAO-B (Rattus norvegicus, UniProt P19643).
T4 sequence (P19643 1-520): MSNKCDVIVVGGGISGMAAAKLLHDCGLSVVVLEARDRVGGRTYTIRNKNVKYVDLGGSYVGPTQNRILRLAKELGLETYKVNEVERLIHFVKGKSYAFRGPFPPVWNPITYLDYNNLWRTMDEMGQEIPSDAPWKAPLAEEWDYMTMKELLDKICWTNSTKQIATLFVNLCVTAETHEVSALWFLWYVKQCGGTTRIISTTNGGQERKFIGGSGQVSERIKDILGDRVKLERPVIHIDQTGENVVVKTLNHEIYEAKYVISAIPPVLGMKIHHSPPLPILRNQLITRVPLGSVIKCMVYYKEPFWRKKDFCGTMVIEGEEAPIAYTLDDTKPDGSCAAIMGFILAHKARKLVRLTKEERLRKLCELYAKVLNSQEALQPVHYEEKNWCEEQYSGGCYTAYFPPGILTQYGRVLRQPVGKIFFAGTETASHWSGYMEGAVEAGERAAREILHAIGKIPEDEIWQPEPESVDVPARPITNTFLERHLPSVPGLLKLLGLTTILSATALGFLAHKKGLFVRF
Description: Inhibition of MAO activity in vitro, rat brain homogenate, PEA substrate. It is filed as biochemical. The arrangement: The MAO enzyme source was a homogenate of rat brain in 0.3M sucrose; from tissue; host or cells: rat brain homogenate (600G supernatant). Particulars: PEA 50µM.
Description: as §2

[9] abbreviates: read-out: MAO-A Inhibition In vitro IC50, rat brain homogenate, 5-HT 1mM.

Structures are written as SMILES. Where a name gives a salt, the structure may show the parent alone. Read-outs that look alike come from different tables or passages of the source.

The values below come from EP0951284B1, “[…] DERIVATIVES” (priority 1996, dated 1998).

T1 sequence (P22303 32-617 isoform P22303-2 limits assumed): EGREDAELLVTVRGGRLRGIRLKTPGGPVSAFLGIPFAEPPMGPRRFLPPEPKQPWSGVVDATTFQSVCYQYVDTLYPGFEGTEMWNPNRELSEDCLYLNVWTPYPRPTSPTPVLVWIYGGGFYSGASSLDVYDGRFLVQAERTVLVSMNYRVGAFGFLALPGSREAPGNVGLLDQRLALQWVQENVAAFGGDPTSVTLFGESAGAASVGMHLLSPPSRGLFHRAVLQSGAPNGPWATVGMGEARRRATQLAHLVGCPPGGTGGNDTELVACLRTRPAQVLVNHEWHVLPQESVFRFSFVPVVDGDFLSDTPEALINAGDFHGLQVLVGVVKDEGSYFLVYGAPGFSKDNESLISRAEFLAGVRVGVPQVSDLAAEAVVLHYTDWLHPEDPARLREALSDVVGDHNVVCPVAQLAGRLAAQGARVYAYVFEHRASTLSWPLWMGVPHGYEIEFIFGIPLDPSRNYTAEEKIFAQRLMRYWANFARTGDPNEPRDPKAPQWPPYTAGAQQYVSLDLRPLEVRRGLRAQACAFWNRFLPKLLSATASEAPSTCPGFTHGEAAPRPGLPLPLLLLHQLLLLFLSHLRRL

Turning to `C#CCNC(C)Cc1cccc(OC(=O)N(C)CCC)c1` (racemic) [Compound 19, (rac)-3-(N-methyl,N-propyl-carbamyloxy)-α-methyl-N'-propargyl phenethylamine HCl], the IC50 turned out to be 20000 nM in series [1] and 14600 nM in series [7]. For the same molecule, the “Time to peak activity t” value in series [2] (AChE inhibition) is 30 to 60 min. The ED50 in series [2] is 170 µmol/kg. Also, the selectivity ratio in series [3] is 7.6. Further, the LD50 at 6 h in series [3] was 1300 µmol/kg. Besides, in series [4], the “MAO-B Inhibition Ex vivo ED50” value was determined as 1.5 µmol/kg. Besides, in series [5], the “MAO-A Inhibition Ex vivo ED50” value is greater than 70 µmol/kg. For the same molecule, the “Protection (% of control)” value in series [6] (25 mg/kg sc) is recorded as 169±50 % of control; in series [6] (50 mg/kg sc) it was 309±253 % of control; in series [6] (75 mg/kg sc), 773±228 % of control.
With `C#CCN(C)C(C)Cc1cccc(OC(=O)N(C)C)c1` (racemic) [Compound 20, (rac)-3-(N,N-dimethyl-carbamyloxy) -α-methyl-N'-methyl,N'-propargyl phenethylamine HCl], the IC50 in series [1] is 1700 nM; in series [7], 120 nM; in series [8], 400 nM. In addition, the 50% effective dose (ED50) in series [2] is 15 µmol/kg. Also, the selectivity ratio in series [3] stood at 11.3. In addition, in series [3], the LD50 at 6 h worked out at 170 µmol/kg. In series [4], the “MAO-B Inhibition Ex vivo ED50” value stood at 7 µmol/kg. Moreover, in series [5], the “MAO-A Inhibition Ex vivo ED50” value is 6 µmol/kg.
For `C#CCNCCc1cccc(OC(=O)N(C)CC)c1` [Compound 13], the IC50 in series [1] is 30000 nM; in series [7], 3300 nM; in series [8], 8300 nM. Further, the “Time to peak activity t” value in series [2] (AChE inhibition) lay within 30 to 90 min. Also, the “Time to return to 50% of peak t” value in series [2] (AChE inhibition) came out at 120 min. The ED50 in series [2] turned out to be 53.8 µmol/kg. For the same molecule, in series [3], the selectivity ratio is 8.5. The same molecule displayed a 50% lethal dose (LD50) at 6 h in series [3] of 458 µmol/kg. The “MAO-B Inhibition Ex vivo ED50” value in series [4] came out at 50 µmol/kg. Further, the “MAO-A Inhibition Ex vivo ED50” value in series [5] came to 75 µmol/kg.
In the case of `C#CCNCCc1cccc(OC(=O)N(C)CCC)c1` [Compound 14], the IC50 in series [1] is 12500 nM; in series [7] (setting [9]), 1800 nM; in series [8], 300 nM. Also, the “Time to peak activity t” value in series [2] (AChE inhibition) was 30 min. Also, in series [2], the median effective dose (ED50) was determined as 100 µmol/kg. Also, the “MAO-B Inhibition Ex vivo ED50” value in series [4] came to 0.6 µmol/kg. Further, the “MAO-A Inhibition Ex vivo ED50” value in series [5] was 4.5 µmol/kg.
As to `C#CCN(C)CCc1cccc(OC(=O)N(C)CC)c1` [Compound 15], the IC50 in series [1] was found to be 67200 nM; in series [7], 1000 nM; in series [8], 1000 nM. Also, in series [2] (AChE inhibition), the “Time to peak activity t” value amounted to 30 min. In addition, the ED50 in series [2] was 145 µmol/kg. The selectivity ratio in series [3] came to 8.6. Also, the LD50 at 6 h in series [3] was 1250 µmol/kg. In addition, in series [4], the “MAO-B Inhibition Ex vivo ED50” value turned out to be 35 µmol/kg. The “MAO-A Inhibition Ex vivo ED50” value in series [5] amounted to 35 µmol/kg.
As for `C#CCN(C)C(C)Cc1cccc(OC(=O)N(C)CC)c1` (stereo not drawn) [Compound 21], the IC50 in series [1] is 230000 nM; in series [7] (setting [9]), 120 nM; in series [8], 200 nM.
